Measurements reported in US9451771B2, “Compositions and methods to attract the brown marmorated stink bug (BMSB), Halyomorpha halys” (United States of America as Represented by the Secretary of …, priority 2012, dated 2016).

Test system: brown marmorated stink bug (BMSB), Halyomorpha halys
Experiment: Field trials of experimental pheromone constituents, baited black pyramid traps
Format: in vivo
Settings: for field attractiveness to BMSB (in words): 2011-2012 field trapping
Text: Field Bioassays. Field Trials of Experimental Pheromone Constituents: Pyramid traps based on dimensions previously used for native stink bugs (Leskey and Hogmire 2005, Hogmire and Leskey 2006) and for brown marmorated stink bugs (Leskey et al. 2012c) were used for all trials. […] Each panel was 1.22 m high, 52 cm wide at the base, and 7 cm wide at the top. Collection jars were constructed based on previously published dimensions (Hogmire and Leskey 2006) with internal cone opening of 1.6 cm with trimmed wire edging to reduce escape. In addition, a Hercon Vaportape™ II (Hercon Environmental, Emigsville, Pa.) was added as a killing agent to prevent escape from traps. In a preliminary study, addition of a killing agent increased trap captures ˜250%. Traps were deployed ˜5 meters from the border of apple and pear orchards at the Appalachian Fruit Research Station or in the border area between wood lots and row crops in Kearneysville, W. Va., Shepherdstown, W. Va., Keedysville, Md., and Beltsville, Md. Traps were spaced ˜50 meters apart. Traps were baited with compounds identified from headspace collections of male BMSB, synthesized and formulated into gray rubber septa or left unbaited.
Fourteen trials were conducted between 19 Apr. to 20 Oct. 2011 (Table 3) and four trials between 20 Mar. to 10 Oct. 2012 (Table 4). Traps were checked a minimum of twice weekly and the treatments were re-randomized at each collection.
All adults and nymphs were removed from traps and recorded. Hercon Vaportape™ strips were changed at four week intervals and lures were changed at two week intervals. Comparisons of adult and nymphal captures used the SAS GLM procedure to evaluate effect of treatment and replicate followed by Tukey's HSD if the model was significant. Appropriate transformations were used to stabilize normality if needed. The effect of sex was dropped from all models because it was never a significant factor.

[1] = AFRS 2012, Trial Three, 14 August-13 September
[2] = Beltsville 2012, Trial Three, 14 August-11 September
[3] = AFRS 2011, Trial Eight, 11 August-6 Sept.
[4] = AFRS 2011, Trial One, 19 April-10 May
[5] = Beltsville 2011, Trial Eight, 11 August-6 Sept.
[6] = Beltsville 2011, Trial One, 19 April-10 May
[7] = AFRS 2012, Trial Two, 31 July-14 August
[8] = Beltsville 2012, Trial Two, 1-14 August
[9] = AFRS 2012, Trial Four, 22 September-10 October
[10] = Beltsville 2012, Trial Four, 17 September-2 October

In the case of `C[C@H](CC[C@H]1OC1(C)C)[C@@H]1C=C[C@](C)(O)CC1` [Lure #23, (3R,6R,7R,10R)-10,11-epoxy-1-bisabolen-3-ol], the “field attractiveness to BMSB (in words)” value is reported as “not attractive”, the “Mean number BMSB adults (±SE) captured” value [1] is reported as 0.75 ± 0.29e per treatment and the “Mean number BMSB nymphs (±SE) captured” value [1] is reported as 2.50 ± 0.53c per treatment. The “Mean number BMSB adults (±SE) captured” value [2] was 0.90 ± 0.26b per treatment and the “Mean number BMSB nymphs (±SE) captured” value [2] was 8.38 ± 2.90bc per treatment.
With `CC1=C[C@H](O)[C@@H]([C@@H](C)CC[C@@H]2OC2(C)C)CC1` [Lure #1, (3R,6R,7S,10S)-10,11-epoxy-1-bisabolen-3-ol] the “field attractiveness to BMSB (in words)” value was “inactive”, the “Mean number BMSB adults (±SE) captured” value [3] was 3.08 ± 0.55b per trap per sample and the “Mean number BMSB nymphs (±SE) captured” value [3] was 14.63 ± 6.06 per trap per sample. The “Mean number BMSB adults (±SE) captured” value [4] was 0.03 ± 0.03 per trap per sample, the “Mean number BMSB nymphs (±SE) captured” value [4] was 0.00 ± 0.00 per trap per sample and the “Mean number BMSB adults (±SE) captured” value [5] was 0.55 ± 0.13ab per treatment. For the same molecule, the “Mean number BMSB nymphs (±SE) captured” value [5] was 3.49 ± 0.67 per treatment, the “Mean number BMSB adults (±SE) captured” value [6] was 0.00 ± 0.20b per treatment and the “Mean number BMSB nymphs (±SE) captured” value [6] was 0.00 ± 0.00 per treatment.
With `C[C@H](CC[C@@H]1OC1(C)C)[C@@H]1C=C[C@](C)(O)CC1` [Lure #17, (3R,6R,7R,10S)-10,11-epoxy-1-bisabolen-3-ol] the “Mean number BMSB adults (±SE) captured” value [7] was 0.40 ± 0.40bc per treatment, the “Mean number BMSB nymphs (±SE) captured” value [7] was 7.15 ± 2.65ab per treatment and the “Mean number BMSB adults (±SE) captured” value [8] was 0.20 ± 0.12ab per treatment. The “Mean number BMSB nymphs (±SE) captured” value [8] was 20.30 ± 8.61 per treatment.
In the case of `C[C@H](CC[C@@H]1OC1(C)C)[C@H]1C=C[C@](C)(O)CC1` [Lure #18, (3R,6S,7R,10S)-10,11-epoxy-1-bisabolen-3-ol], the “field attractiveness to BMSB (in words)” value is reported as “moderately attractive”, the “Mean number BMSB adults (±SE) captured” value [9] is reported as 2.48 ± 0.70abc per treatment and the “Mean number BMSB nymphs (±SE) captured” value [9] is reported as 0.60 ± 0.37 per treatment. The “Mean number BMSB adults (±SE) captured” value [7] was 0.90 ± 0.38bc per treatment, the “Mean number BMSB nymphs (±SE) captured” value [7] was 6.50 ± 2.08ab per treatment and the “Mean number BMSB adults (±SE) captured” value [10] was 4.15 ± 1.17a per treatment. The “Mean number BMSB nymphs (±SE) captured” value [10] was 0.05 ± 0.05 per treatment, the “Mean number BMSB adults (±SE) captured” value [8] was 0.35 ± 0.13ab per treatment and the “Mean number BMSB nymphs (±SE) captured” value [8] was 23.45 ± 9.95 per treatment.
With `C[C@H](CC[C@@H]1OC1(C)C)[C@H]1C=C[C@@](C)(O)CC1` [Lure #22, (3S,6S,7R,10S)-10,11-epoxy-1-bisabolen-3-ol] the “field attractiveness to BMSB (in words)” value was “more attractive than #23”, the “field attractiveness to BMSB (in words)” value (listed as stereoisomer 1) was “attracted BMSB females, males, and nymphs” and the “Mean number BMSB adults (±SE) captured” value [9] was 1.36 ± 0.59bc per treatment. The “Mean number BMSB nymphs (±SE) captured” value [9] was 0.80 ± 0.57 per treatment, the “Mean number BMSB adults (±SE) captured” value [1] was 2.73 ± 0.50d per treatment and the “Mean number BMSB nymphs (±SE) captured” value [1] was 7.30 ± 2.02bc per treatment. The “Mean number BMSB adults (±SE) captured” value [10] was 5.05 ± 1.01a per treatment, the “Mean number BMSB nymphs (±SE) captured” value [10] was 0.15 ± 0.11 per treatment and the “Mean number BMSB adults (±SE) captured” value [2] was 2.65 ± 0.44a per treatment. For the same molecule, the “Mean number BMSB nymphs (±SE) captured” value [2] was 21.90 ± 6.49ab per treatment.
